Measured values reported in patent publication US9271962B2 (NORTHEASTERN UNIVERSITY, priority 2008, dated 2016).

Tests used:
[1] = target: T1, hMGL (Homo sapiens, UniProt Q99685); experiment: Fluorescent enzyme assay, MGL (AHMMCE hydrolysis); type: biochemical; settings: for inhibition at 0.01 µM: 10 nM inhibitor, read-out: % Inhibition of Enzyme by inhibitor, MGL, 10 nM; for inhibition at 0.01 µM / inhibition at 1 µM: screening assay; for inhibition at 1 µM: 1000 nM inhibitor; for inhibition at 100 µM: 100 uM inhibitor, printed in the 1000 nM column
T1 construct: A full-length cDNA clone of the human MGL transcript variant 1; made in house; host or cells: E. coli BL21 (DE3)
T1 sequence (Q99685 2-303 limits assumed): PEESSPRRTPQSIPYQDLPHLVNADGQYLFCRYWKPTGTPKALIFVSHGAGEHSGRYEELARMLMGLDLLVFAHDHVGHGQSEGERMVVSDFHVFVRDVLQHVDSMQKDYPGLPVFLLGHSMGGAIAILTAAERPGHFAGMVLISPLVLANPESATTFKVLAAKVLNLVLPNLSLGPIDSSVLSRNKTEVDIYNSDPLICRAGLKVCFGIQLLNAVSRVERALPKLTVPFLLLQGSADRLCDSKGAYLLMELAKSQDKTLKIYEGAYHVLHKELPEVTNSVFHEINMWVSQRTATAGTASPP
Experimental: (§1) Some analogs were tested for their FAAH/MGL inhibitory activity, which is expressed as % of inhibition (Tables 2, 3, and 4 below). The percentage of inhibition results from three-point assay (three concentrations of inhibitor are used) and it is less accurate (preliminary screening) than the IC50/Ki values that are determined from eight-point assay (eight different concentrations of inhibitor were used). The percentage of inhibition describes the percentage by which the inhibitor reduces the velocity/rate of AAMCA (arachidonoyl-7-amino-4-methylcoumarin amide) or AHMMCE (arachidonoyl-7-hydroxy-6-methoxy-4-methylcoumarin ester) hydrolysis by FAAH or MGL respectively. The IC50 is the concentration of the inhibitor, which results in 50% inhibition of the velocity/rate of AAMCA (arachidonoyl 7-amino-4-methylcoumarin amide) hydrolysis by FAAH or AHMMCE (Arachidonoyl, 7-hydroxy-6-methoxy-4-methylcoumarin ester) hydrolysis by MGL. The Ki value is the affinity constant and describes the ability of the compounds to inhibit the function of FAAH or MGL. The lower the IC50/Ki values, the higher the affinity of the inhibitor for the enzyme and the higher its inhibitory activity. A detailed description of the methods used to test inhibitory activity of compounds is given below.
A full-length cDNA clone of the human MGL transcript variant 1 (gi: 51242951) was obtained from OriGene Technologies (Rockville, Md.). The coding part of the MGL sequence (except the translation initiation codon ATG) was amplified by a polymerase chain reaction (PCR) using forward […] and reverse […] primers containing PmlI and SacI restriction enzyme recognition sites, respectively. iProof high-fidelity DNA polymerase (Bio-Rad, Hercules, Calif.) was used in the PCR amplification with 33 cycles, each consisting of denaturation at 94° C. for 10 s, annealing at 55° C. for 33 s, and extension at 72° C. for 1 min. The PCR product and pET45b vector were digested with PmlI and SacI restriction enzymes, and the vector was dephosphorylated with CIP followed by in-gel purification using the MinElute Gel Extraction Kit (Qiagen Corp., Valencia, Calif.). The fragment was inserted into the vector directly downstream after the 6 histidine and valine codons, generating the construct pET45His6hMGL for expression of hMGL containing an N-terminal His6-tag. GC10 E. coli cells were used for DNA transformation and plasmid propagation. Mini- and midi-scale plasmid DNA preparations were performed using a GenElute Plasmid Miniprep Kit (Sigma) and PureYield Plasmid Midiprep System (Promega, Madison, Wis.), respectively. In-frame vector-fragment junctions and the coding sequence of the recombinant gene were confirmed by sequencing. The pET45His6hMGL construct was transformed into BL21 (DE3) and Origami (DE3) E. coli expression strains (Novagen, Madison, Wis.).
A single E. coli BL21 (DE3) colony containing the pET45His6hMGL plasmid was inoculated into 12 mL of Luria broth-ampicillin medium and grown overnight with shaking (250 rpm) at 37° C. The next morning, 10 mL of this culture was inoculated into 1 L of fresh Luria broth-ampicillin and allowed to grow until culture turbidity reached an (OD)600 of 0.6-0.8, at which time expression from the T7 promoter was induced by adding isopropyl-β-D-thio-galactopyranoside (1 mM). After 5 h induction, the cells were harvested by centrifugation at 5,000 g for 10 min at 4° C., washed with PBS, and held at −80° C. Five grams (wet-weight) of cells were resuspended in 50 mL lysis buffer (100 mM NaCl; 50 mM Tris, pH 8.0) supplemented with Triton X-100 (0.5%), lysozyme (0.2 mg/mL), and DNase I (25 μg/ml) and disrupted on ice by three, one-min sonication cycles, each consisting of 1-sec sonication bursts at 50 W power separated from each other by a 2-sec interval (Vibra-Cell 500 W, Sonics, Newtown, Conn.). The cell lysate was centrifuged at 10,000 g for 30 min at 4° C. […]

[2] = target: T2, ΔTM rFAAH (Rattus norvegicus, UniProt P97612); experiment: Fluorescent enzyme assay, FAAH (AAMCA hydrolysis); type: biochemical; settings: AAMCA substrate; for inhibition at 0.01 µM: 10 nM inhibitor; for inhibition at 0.01 µM / inhibition at 1 µM: screening assay; for inhibition at 1 µM: 1000 nM inhibitor
T2 construct: 15 ug of ΔTM rFAAH (cell lysate obtained by recombinant procedure); made in house
T2 sequence (P97612 30-579 limits assumed): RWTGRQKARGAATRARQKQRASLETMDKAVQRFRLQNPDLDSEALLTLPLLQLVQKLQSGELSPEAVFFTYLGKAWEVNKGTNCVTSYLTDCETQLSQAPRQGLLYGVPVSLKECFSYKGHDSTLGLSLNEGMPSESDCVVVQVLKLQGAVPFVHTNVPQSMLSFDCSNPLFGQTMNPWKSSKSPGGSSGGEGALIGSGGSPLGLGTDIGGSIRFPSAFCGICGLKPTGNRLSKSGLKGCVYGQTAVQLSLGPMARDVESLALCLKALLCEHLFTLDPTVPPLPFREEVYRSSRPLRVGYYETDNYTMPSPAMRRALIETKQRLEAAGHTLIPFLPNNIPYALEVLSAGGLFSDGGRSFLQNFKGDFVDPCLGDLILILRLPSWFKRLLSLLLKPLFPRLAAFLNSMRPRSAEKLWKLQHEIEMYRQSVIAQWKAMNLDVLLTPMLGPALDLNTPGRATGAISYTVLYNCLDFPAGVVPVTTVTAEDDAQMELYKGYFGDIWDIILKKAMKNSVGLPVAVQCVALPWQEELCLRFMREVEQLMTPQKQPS
Experimental: as §1
The enzyme (FAAH and MGL) assays were performed in 96 well plates (Coster #3650) in a total volume of 200 uL. Fluorogenic substrate AAMCA (arachidonoyl 7-amino-4-methylcoumarin amide) for FAAH and AHMMCE (arachidonoyl 7-hydroxy-6-methoxy-4-methylcoumarin ester) for MGL were used using BioTek Synergy HT Microplate Reader. Compounds and substrates were dissolved in DMSO provide a 10 mM stock solution and kept as a stock solution at −20° C. until used for assay. Stock solutions were thawed and reconstituted in 50:50 DMSO/assay buffer to a final DMSO concentration per well below 8%. This ensures that the compounds and substrate are in solution during assay. […] Appropriate substrate was added to adjust the final concentration in each well to 20 uM for FAAH (2× Km) and 10 uM for MGL (1×KM). Fluorescence readings were performed at λex=360/λem=460 for 4 h using Kinetic assay protocol at every 20 min (the fluorescent product coumarin produced is quantitated by this procedure). The readings at 3 h for FAAH and 2 h for MGL (linear maximum hydrolysis kinetics of enzyme on substrate) were used to calculate percent inhibition based on controls. Compounds which had more than 50 percent inhibition at 10 uM were selected for dose response study to determine IC50 values. The dose response at 8 concentration points was performed as with the screening assay except that compounds were serially diluted to 8 concentration points which were chosen based on IC50 value, which were calculated from the screening assay results. Assays are run twice in triplicates and Graphpad Prism software is used to plot inhibition data to obtain IC50 values.

| Compound | inhibition at 0.01 µM ([1]; AHMMCE substrate) | inhibition at 0.01 µM [2] | other results |
| --- | --- | --- | --- |
| CN(C)C(=O)n1ncnn1 [Compound 1a, N,N-dimethyl-2H-tetrazole-2-carboxamide] | 58% | 73% |  |
| CN(C)C(=O)n1cnnn1 [Compound 1b] | 13% | 51% |  |
| CN(C)C(=O)n1nnnc1-c1cc2ccccc2[nH]1 [Compound 3b, 5-(1H-indol-2-yl)-N,N-dimethyl-2H-tetrazole-1-carboxamide] | 92% | 97% |  |
| CN(C)C(=O)n1nnnc1CC(=O)c1ccccc1 [Compound 4, N,N-dimethyl-5-(2-oxo-2-phenylethyl)-1H-tetrazole-1-carboxamide] | 90% | 100% |  |
| CN(C)C(=O)n1nnnc1Cc1cccnc1 [Compound 5, N,N-dimethyl-5-(pyridin-3-yl-methyl)-1H-tetrazole-1-carboxamide] | 81% | 84% |  |
| O=C(N1CCOCC1)n1nnc(Cc2ccc(Cl)cc2Cl)n1 [Compound 6, 4-{[5-(2,4-dichlorobenzyl)-tetrazol-2-yl]carbonyl}morpholine] | 88% | 94% |  |
| CN(C(=O)n1nnc(Cc2ccc(Cl)cc2Cl)n1)c1ccccc1 [Compound 7a, 5-(2,4-dichlorobenzyl)-N-methyl-N-phenyl-2H-tetrazole-2-carboxamide] | 58% | 84% |  |
| CN(C(=O)n1nnnc1Cc1ccc(Cl)cc1Cl)c1ccccc1 [Compound 7b] | 8% | 89% |  |
| O=C(N(c1ccccc1)c1ccccc1)n1nnc(Cc2ccc(Cl)cc2Cl)n1 [Compound 8a, 5-(2,4-dichlorobenzyl)-N,N-diphenyl-2H-tetrazole-2-carboxamide] |  |  | inhibition at 1 µM ([1]; AHMMCE substrate): 100%; IC50 ([1]; eight-point dose response, AHMMCE substrate): 40 nM; inhibition at 1 µM [2]: 66%; IC50 ([2]; eight-point dose response): 1300 nM |
| O=C(N(c1ccccc1)c1ccccc1)n1nnnc1Cc1ccc(Cl)cc1Cl [Compound 8b] |  |  | inhibition at 1 µM ([1]; AHMMCE substrate): 21%; inhibition at 1 µM [2]: 9% |
| CCN(CC)C(=O)n1nnc(Cc2ccc(Cl)cc2Cl)n1 [Compound 9, 5-(2,4-dichlorobenzyl)-N,N-diethyl-tetrazole-2-carboxamide] | 43% | 95% |  |
| CC(C)N(C(=O)n1nnc(Cc2ccc(Cl)cc2Cl)n1)C(C)C [Compound 10, 5-(2,4-dichlorobenzyl)-N,N-diisopropyl-tetrazole-2-carboxamide] |  |  | inhibition at 1 µM ([1]; AHMMCE substrate): 11%; inhibition at 1 µM [2]: 94% |
| O=C(N1CCC2(CC1)OCCO2)n1nnc(Cc2ccc(Cl)cc2Cl)n1 [Compound 14] |  |  | inhibition at 1 µM ([1]; AHMMCE substrate): 52%; inhibition at 1 µM [2]: 97% |
| O=C(N1CCN(Cc2ccccc2)CC1)n1nnc(Cc2ccc(Cl)cc2Cl)n1 [Compound 15] |  |  | inhibition at 1 µM ([1]; AHMMCE substrate): 63%; inhibition at 1 µM [2]: 95% |
| CN(C)C(=O)n1nnc(Cc2ccc(Br)cc2)n1 [Compound 16a, 5-(4-bromobenzyl)-N,N-dimethyl-2H-tetrazole-2-carboxamide] | 98% | 92% |  |
| CN(C)C(=O)n1nnnc1Cc1ccc(Br)cc1 [Compound 16b] | 64% | 92% |  |
| CN(C)C(=O)n1nnc(Cc2ccc(Cl)cc2Cl)n1 [Compound 17a, 5-(2,4-dichlorobenzyl)-N,N-dimethyl-2H-tetrazole-2-carboxamide] | 99% | 93% |  |
| CN(C)S(=O)(=O)n1nnc(Cc2ccc(-c3ccccc3)cc2)n1 [Compound 38a] |  |  | inhibition at 1 µM [2]: 25% |
| CN(C)C(=O)n1nnc(Cc2ccc(-c3cccnc3)cc2)n1 [Compound 43, N,N-dimethyl-5-(4-(pyridin-3-yl)benzyl)-2H-tetrazole-2-carboxamide] |  |  | inhibition at 1 µM [2]: 34% |
| CN(C)C(=O)n1nnc(Cc2ccccc2Cl)n1 [Compound 45, 5-(2-chlorobenzyl)-N,N-dimethyl-2H-tetrazole-2-carboxamide] | 93% |  |  |
| CN(C)C(=O)n1nnc(C(F)(F)c2ccccc2)n1 [Compound 46, 5-(difluoro(phenyl)methyl)-N,N-dimethyl-2H-tetrazole-2-carboxamide] | 2% |  | inhibition at 1 µM ([1]; AHMMCE substrate): 92% |
| CN(C)C(=O)n1cnc(-c2ccccc2)n1 [Compound 52, N,N-dimethyl-3-phenyl-1H-1,2,4-triazole-1-carboxamide] | 2% |  | inhibition at 1 µM ([1]; AHMMCE substrate): 87% |
| O=C(N1CCN(Cc2ccc3ccccc3n2)CC1)n1cnc(-c2ccccc2)c1 [Compound 64, (4-phenyl-1H-imidazol-1-yl)(4-(quinolin-2-ylmethyl)piperazin-1-yl)methanone] |  |  | inhibition at 100 µM [1]: 19% |
| O=C(N1CCN(Cc2ccc3ccccc3n2)CC1)n1nnc(Cc2ccc(Cl)cc2Cl)n1 [Compound 65, (5-(2,4-dichlorobenzyl)-2H-tetrazol-2-yl)(4-(quinolin-2-ylmethyl)piperazin-1-yl)methanone] |  |  | inhibition at 100 µM [1]: 68% |
